Target: Serine/threonine-protein kinase PAK 1 (Homo sapiens, UniProt Q13153)
Test: Inhibition of human recombinant PAK1 assessed as phosphorylation FRET peptide substrate measured after 60 mins

Sequence of Serine/threonine-protein kinase PAK 1 (Q13153 whole entry): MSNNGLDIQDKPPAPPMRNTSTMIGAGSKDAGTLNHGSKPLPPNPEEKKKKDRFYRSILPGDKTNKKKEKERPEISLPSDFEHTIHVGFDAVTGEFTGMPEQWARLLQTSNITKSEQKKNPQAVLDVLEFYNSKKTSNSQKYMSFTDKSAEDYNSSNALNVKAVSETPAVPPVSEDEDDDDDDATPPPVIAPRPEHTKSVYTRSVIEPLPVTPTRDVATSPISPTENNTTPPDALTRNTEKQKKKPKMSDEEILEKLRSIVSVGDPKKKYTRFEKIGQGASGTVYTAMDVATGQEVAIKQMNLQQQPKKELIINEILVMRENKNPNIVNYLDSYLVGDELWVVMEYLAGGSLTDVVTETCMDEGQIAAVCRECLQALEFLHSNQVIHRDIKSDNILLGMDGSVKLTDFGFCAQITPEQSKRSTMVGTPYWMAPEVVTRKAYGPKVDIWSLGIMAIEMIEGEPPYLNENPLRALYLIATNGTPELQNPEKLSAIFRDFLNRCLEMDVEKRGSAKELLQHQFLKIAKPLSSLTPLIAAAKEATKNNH

- IC50: 233 nM
Structure (SMILES): CN1C(=O)CCC(N2C(=O)c3cccc(NCCCCCCCCNC(=O)N4CC[C@H](NC5=Nc6cc(F)ccc6N(CC(F)F)c6ccc(Cl)cc65)C4)c3C2=O)C1=O (stereo partly specified)
